Experimental data as given in US20260102495A1, “METHOD FOR PRODUCING ONE OR SEVERAL SHARED CANCER EPITOPE(S) DERIVED FROM ALTERNATIVE TRANSLATIONAL CONTROL” (CENTRE LEON BERARD, priority 2022, published 2026).
No end group written: not given here.

Assays:
CD8+ naive T cells = test: PBMCs priming assay on HLA-A*02:01 healthy donors with dextramer analysis; format: cell-based, human
[1] = system: HLA-A2+ normal human primary cells
Excerpt: After elution, dissociation, filtration, and cleanup, peptides were lyophilized before further analysis. Transition parameters for each epitope peptide were examined and curated through Valid-NEO method builder bioinformatic pipeline to exclude ions with excessive noise due to coelution with impurities and to boost up the detectability through recursive optimizations of significant ions.

Row | presentation of epitope at the cell surface (MS transitions) [1] | Sequence | donors in which priming of peptide specific CD8+ T cells was identified (CD8+ naive T cells; 12 different donors, FIG. 2B) | dextramer positive CD8+ T cells (CD8+ naive T cells; after 12 days priming with peptide pulsed MoDCs, FIG. 2A)
1 | – | SLTDLYLRI [PR5] | 2 donors | 0.068%
2 | not presented by normal cells | LLLEATANL [PR3] | – | –
